Laboratory results from patent US6894045B2, “Tetrahydropurinones and derivatives thereof as corticotropin releasing factor receptor ligands” (Bristol-Myers Squibb Pharma Company, priority 2001, dated 2005).

Row | melting point [°C] | SMILES
1 | 216 to 217 | CCc1nc2c(n1Cc1ccc(-c3ccccc3)cc1)C(=O)N(C)CN2c1ccc(Cl)cc1Cl [Example 21, 7-([1,1′-biphenyl]-4-ylmethyl)-3-(2,4-dichlorophenyl)-8-ethyl-1-methyl-1,2,3,7-tetrahydro-6H-purin-6-one]
2 | 117 to 118 | CCCC(CCC)n1c(CC)nc2c1C(=O)N(C)CN2c1ccc(Cl)cc1Cl [Example 2, 3-(2,4-dichlorophenyl)-8-ethyl-7-(4-heptyl)-1-methyl-1,2,3,7-tetrahydro-6H-purin-6-one]
3 | 144 to 145.5 | CCCC(CCC)n1c(CC)nc2c1C(=O)N(C)C(C)N2c1ccc(Cl)cc1Cl (stereo not shown) [Example 5, 3-(2,4-dichlorophenyl)-1,2-dimethyl-8-ethyl-7-(4-heptyl)-1,2,3,7-tetrahydro-6H-purin-6-one]
4 | 116.5 to 117.5 | CCCC(CCC)n1c(CC)nc2c1C(=O)N(C)C(CC)N2c1ccc(Cl)cc1Cl (stereo not shown) [Example 6, 3-(2,4-dichlorophenyl)-2,8-diethyl-7-(4-heptyl)-1-methyl-1,2,3,7-tetrahydro-6H-purin-6-one]
5 | 135 to 136.5 | CCc1nc2c(n1C(CC)CC)C(=O)N(C)C(C)N2c1ccc(Cl)cc1Cl (stereo not shown) [Example 3, 3-(2,4-dichlorophenyl)-1,2-dimethyl-8-ethyl-7-(3-pentyl)-1,2,3,7-tetrahydro-6H-purin-6-one]
6 | 94 to 95 | CCCCC(CC)n1c(CC)nc2c1C(=O)N(C)CN2c1ccc(Cl)cc1Cl (stereo not shown) [Example 49, 3-(2,4-dichlorophenyl)-8-ethyl-7-(3-heptyl)-1-methyl-1,2,3,7-tetrahydro-6H-purin-6-one]
7 | 132 to 133 | CCc1nc2c(n1C(CC)CC)C(=O)N(C)CN2c1ccc(Cl)cc1Cl [Example 1, 3-(2,4-dichlorophenyl)-8-ethyl-1-methyl-7-(3-pentyl)-1,2,3,7-tetrahydro-6H-purin-6-one]
